BindingDB's records for doi:10.1016/j.bmcl.2017.03.037 (Rigel Pharmaceuticals, 2017)

Test: Induction of nuclear translocation of human GFP-tagged NFATc1 expressed in virus infected primary human skeletal muscle myoblasts after 3 hrs by DAPI staining based assay

Structure (SMILES) | EC50
Fc1ccc(Cn2cc(-c3ccncc3)c3ccncc32)cc1 | 7.58 µM
COc1cccc2c(-c3ccnc(N)n3)c[nH]c12 | 9.8 µM
c1cc(-c2cn(CCCN3CCOCC3)c3cnccc23)ccn1 | 6.96 µM
N#Cc1cccc2c(-c3ccnc(N)n3)c[nH]c12 | 21.7 µM
Cc1cc(-c2c[nH]c3cnccc23)ccn1 | 20.8 µM
c1ccc2c(-c3c[nH]c4cnccc34)ccnc2c1 | 43 µM

Further lines, results first:

EC50 | Structure (SMILES)
6.9 µM | COCCn1cc(-c2ccncc2)c2ccncc21
2.21 µM | Cn1cc(-c2ccncc2)c2ccncc21
4.8 µM | Nc1nccc(-c2c[nH]c3cnccc23)n1
2.98 µM | c1cc(-c2c[nH]c3cnccc23)ccn1
1.59 µM | c1cc(-c2cn(CCC3CC3)c3cnccc23)ccn1
5.31 µM | Clc1cnccc1-c1c[nH]c2cnccc12
4.85 µM | Fc1cc(-c2c[nH]c3cnccc23)ccn1
0.31 µM | CC(C)n1cc(-c2ccncc2)c2ccncc21
